Consider twelve molecules from paper PMC3690454, “14-3-3 Proteins Interact with a Hybrid Prenyl-Phosphorylation Motif to Inhibit G Proteins” (Cell, 2013).

The target in experiment [1] is T1, 14-3-3ζ (Homo sapiens, UniProt P63104).
T1 construct: hexa-His; made in house; host or cells: E. coli BL21(DE3) Star
T1 sequence (P63104 1-245): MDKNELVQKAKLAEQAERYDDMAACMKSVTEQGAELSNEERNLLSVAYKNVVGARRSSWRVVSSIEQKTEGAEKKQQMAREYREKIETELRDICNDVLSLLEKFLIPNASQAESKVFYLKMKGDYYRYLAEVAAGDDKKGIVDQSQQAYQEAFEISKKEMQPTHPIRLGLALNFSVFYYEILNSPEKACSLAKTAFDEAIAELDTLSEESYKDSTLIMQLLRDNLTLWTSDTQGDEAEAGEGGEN
The experiment is described as follows: Isothermal titration calorimetry of Rnd3 C-terminal peptides with 14-3-3ζ. As to conditions: ITC. The format is binding. Here is the method:
ITC measurements were carried out using a VP-ITC200 instrument (GE Healthcare). The 14-3-3ζ domain (see Extended Experimental Procedures) was used at 50–60 μM in ITC buffer (50 mM Tris [pH 7.5]), 100 mM NaCl, 1 mM TCEP). Rnd3 C-terminal peptides were solubilized in ITC buffer and used at 500–600 μM. Titrations were carried out at 25°C in triplicate. Each titration was fitted to a simple one-site binding model using the Origin software provided with the instrument. Titrations with nonbinding peptides were carried out at 15°C and 25°C.
GST-14-3-3β protein was expressed as previously reported ([Yaffe et al., 1997]). A hexa-His-tagged version of 14-3-3ζ was expressed and purified essentially as previously reported ([Kostelecky et al., 2009]). In brief, the E. coli strain BL21(DE3) Star (Invitrogen) was transformed with the expression plasmid that was maintained by 34 μg/ml chloramphenicol. E. coli cells were grown to OD600nm of 0.7-0.8 in TB medium at 37°C and protein expression induced by 1 mM IPTG for 5 hr at 30°C. Pelleted cells were suspended in buffer A (25 mM Tris [pH 7.5], 100 mM NaCl, 1 mM EDTA, and 1 mM DTT) and disrupted by sonication. Insoluble material was cleared by high-speed centrifugation and the cleared lysate applied to a 5 ml HisTrap column using an AKTA system (GE Healthcare). The 14-3-3ζ protein was eluted with a linear gradient (0–500 mM) of Imidazole in buffer A. Finally, the protein was subjected to size-exclusion chromatography using a High-Load S200 pg column. As previously described, 14-3-3ζ eluted as a dimer with a molecular weight of ∼60 kDa. The final yield of 14-3-3ζ was 30–40 mg per liter of TB medium.

The target of experiment [2] is T1, 14-3-3ζ. The experiment is described as follows: Biolayer interferometry (Octet RED96), immobilised biotinylated peptides, 14-3-3ζ in solution. As to conditions: typical experiment (n ≥ 3); for Kd: kinetic fit, peptide immobilised at 1 μg/ml, 25 mM Tris, 150 mM NaCl, 0.1% Tween-20, association 300 s, dissociation 300 s, NB = no binding. The format is binding. How it is done: (§1) Biolayer interferometry was carried out using an Octet RED96 instrument (ForteBio). Biotinylated peptides were immobilized on streptavadin-coated biosensors (ForteBio) at a concentration of 1 μg/ml in BI buffer (25 mM Tris, 150 mM NaCl, 0.1% Tween-20), for 300 s. The immobilization typically reached a response level of 2 nm. Association and dissociation curves were obtained through addition of a dilution series of 14-3-3ζ ([…]) for 300 s followed by dissociation in BI buffer for 300 s using the Octet acquisition software. The binding data were fitted using the Octet analysis software.

The subject of the next experiment is Rnd3/14-3-3 interaction. The experiment is described as follows: Co-immunoprecipitation of Rnd3 with 14-3-3 proteins from treated COS7 cells. Type of experiment: cell-based. The settings on record: staurosporine 100 nM 2 hr, calyculin A 100 nM 20 min, FTI (L-744,832) 10 μM 16 hr, immunoblot. How it is done:
COS7 cells grown in Dulbecco’s modified Eagle’s medium (DMEM) containing 10% bovine fetal calf serum and penicillin/streptomycin (Invitrogen) were electroporated with 5 μg DNA at 250 V and 960 μF using 0.4 cm Gene Pulser Cuvettes (Bio-Rad) in 250 μl of electroporation buffer (120 mM KCl, 10 mM K2PO4/KH2PO4 [pH 7.6], 25 mM HEPES [pH 7.6], 2 mM MgCl2, and 0.5% Ficoll). Cells were analyzed 24 hr after transfection. NIH 3T3 cells grown in DMEM containing 10% donor bovine serum and penicillin/streptomycin were transfected using FuGENE 6 (Roche) according to the manufacturer’s instructions. Where indicated, cells were treated for 20 min with 100 nM calyculin A (Alexis); for 2 hr with 100 nM staurosporine (Calbiochem), 20 μM H-1152 (Calbiochem), 1 μM bisindolylmaleimide I (BIM1, Calbiochem), or 100 nM phorbol-12-myristate-13-acetate (PMA, Cell Signaling Technology); and for 16 hr with 10 μM L-744,832 farnesyltransferase inhibitor (FTI, Calbiochem).
Transfected COS7 cells were lysed in lysis buffer LB (1% Triton X-100, 20 mM Tris–HCl [pH 8], 130 mM NaCl, 1 mM dithiothreitol [DTT], 10 mM sodium fluoride, complete EDTA-free protease inhibitor cocktail [Roche], phosphatase inhibitor cocktails [set II+IV, Calbiochem]). After centrifugation (13,000 g, 4°C, 10 min), soluble proteins were precleared then incubated with either mouse nonimmune IgG as a control, mouse anti-HA (HA-7) or mouse anti-FLAG (M2) antibody on agarose beads (Sigma-Aldrich) for 2 hr at 4°C. Beads were washed five times with lysis buffer (containing 260 mM NaCl), then bound proteins were eluted in Laemmli sample buffer (LSB), resolved by SDS–PAGE and analyzed by immunoblotting.

A further experiment has as its target hexa-His-tagged 14-3-3ζ (UniProt P63104). Nature of the experiment: ITC; VP-ITC200; 14-3-3ζ at 50–60 μM, Rnd3 peptides at 500–600 μM; 50 mM Tris pH 7.5, 100 mM NaCl, 1 mM TCEP; 25°C, one-site model; non-binding peptides at 15°C and 25°C.
In experiment [3] the test system is GST-14-3-3β / Rnd3 interaction. Nature of the experiment: Peptide competition in GST-14-3-3β pull-down of FLAG-Rnd3 from COS7 lysates. As to conditions: peptide 10 μg/ml preincubated 15 min at 4°C with GST-14-3-3β; immunoblot. Type of experiment: binding. How it is done:
Recombinant GST-14-3-3β was expressed and purified from E. coli (Extended Experimental Procedures). FLAG-Rnd3-transfected COS7 cells were lysed in LB buffer. After removal of insoluble material, precleared cell lysates were incubated at 4°C for 2 hr with the recombinant GST or GST-14-3-3β protein (5 μg) on glutathione beads (Amersham Biosciences). Beads were washed with LB buffer before eluting the proteins in LSB. The proteins were resolved by SDS-PAGE and analyzed by immunoblotting.
For peptide competition experiments (Table S3; Extended Experimental Procedures), peptides (10 μg/ml) were preincubated for 15 min at 4°C with the GST-14-3-3β prior to the addition of precleared cell lysates.

In another experiment the target is T2, 14-3-3δ (Homo sapiens, UniProt P63104).
T2 construct: hexa-His; made in house; host or cells: E. coli BL21(DE3) Star
T2 sequence (P63104 1-245): T1 sequence (P63104 1-245)
Nature of the experiment: Biolayer interferometry (Octet Red96) of candidate protein C-terminal peptides, Table S5. Type of experiment: binding. The settings on record: for affinity for 14-3-3 (in words): compared with farnesylated or geranylgeranylated Rnd3 peptides; for koff: typical experiment (n ≥ 3). Here is the method:
as §1
Table S5. Interactions of C-Terminal Peptides from Candidate Proteins with 14-3-3, […]
The affinities of the indicated phosphorylated and geranylgeranylated peptides for 14-3-3δ were determined by biolayer interferometry using an Octet Red96 instrument. Data of a typical experiment (n ≥ 3) along with statistics of the fit (χ2, R2) are shown. Peptide sequences from the C-terminus of the indicated proteins (last 10 amino acids of the mature protein sequence, terminating with Cys of CAAX box) are shown in single letter amino acid code, with pS/pT denoting phosphorylated serine/threonine. The modifications added to the C-terminal Cys are indicated. GG, geranylgeranylated; KD, dissociation constant; kon, association rate constant; koff, dissocation rate constant.

Square brackets hold non-standard residues; d marks the D form. Ends that are not written are not given here. Peptide text beside a SMILES is read from it. * marks the point of attachment. Geranylgeranyl = CC(C)=CCC/C(C)=C/CC/C(C)=C/CC/C(C)=C/C*; Biotin = O=C1N[C@H]2[C@H](CS[C@H]2CCCCC(=O)*)N1; Farnesyl = CC(C)=CCC/C(C)=C/CC/C(C)=C/C*; pT = C[C@@H](OP(=O)(O)O)[C@H](N)C(=O)O; pS = N[C@@H](COP(=O)(O)O)C(=O)O; Ahx = NCCCCCC(=O)O

Take DLRKDKAKSC-OH [−P-F]: the “binding to 14-3-3ζ (in words)” value at 14-3-3ζ [1] (tested at 15°C and 25°C) is given as “no binding”. Further, the dissociation constant (Kd) at 14-3-3ζ [2] is above 4000 nM. Consider `CN[C@@H]1C[C@H]2O[C@@](C)([C@@H]1OC)n1c3ccccc3c3c4c(c5c6ccccc6n2c5c31)C(=O)NC4` [staurosporine], for which the “effect on Rnd3/14-3-3 interaction” value with Rnd3/14-3-3 interaction is given as “reduced”. In the experiment with hexa-His-tagged 14-3-3ζ, “biotinylated Rnd3 C-terminal peptide, phosphorylated on S240 and farnesylated on C241 (+P+F)” had a dH of -2.96 kcal/mol and a stoichiometry N of 0.83. For the molecule “N-CDRSKpSAPTS-C [PKC, reference compound]”, the “inhibition of the interaction between GST-14-3-3β and Rnd3” value in experiment [3] is “inhibited”.

Regarding `CC(C)=CCC/C(C)=C/CC/C(C)=C/CC/C(C)=C/CSC[C@H](NC(=O)[C@H](COP(=O)(O)O)NC(=O)[C@H](CCCCN)NC(=O)[C@H](CO)NC(=O)[C@H](CCCNC(=N)N)NC(=O)[C@H](CCCNC(=N)N)NC(=O)[C@H](CCC(=O)O)NC(=O)[C@@H](NC(=O)[C@H](CC(N)=O)NC(=O)[C@@H](NC(=O)CCCCCNC(=O)CCCC[C@@H]1SC[C@@H]2NC(=O)N[C@@H]21)[C@@H](C)O)[C@@H](C)O)C(=O)O` [RPRG] ({Biotin-Ahx}-TNTERRSK[pS]C(Geranylgeranyl)-OH), at 14-3-3δ, the “affinity for 14-3-3 (in words)” value is recorded as “intermediate affinity” and the off-rate constant (koff) worked out at 0.022 s⁻¹. For `COC[C@@H]([C@H](O)[C@H](O)C(=O)NCC[C@H](C)c1nc(/C=C/C[C@@H]2O[C@]3(C[C@@H](O)[C@@H]2C)O[C@H]([C@H](C[C@H](O)[C@H](C)[C@H](O)[C@H](C)/C=C(C)/C(C)=C/C=C/C(C)=C\C#N)OC)[C@H](OP(=O)(O)O)C3(C)C)co1)N(C)C` [calyculin A], the “effect on Rnd3/14-3-3 interaction” value with Rnd3/14-3-3 interaction is on record as “increased”.

As for `CC[C@H](C)[C@@H](CO[C@@H](Cc1ccccc1)C(=O)N[C@@H](CCS(C)(=O)=O)C(=O)OC(C)C)NC[C@@H](N)CS` [FTI, L-744,832], the “effect on Rnd3/14-3-3 interaction” value with Rnd3/14-3-3 interaction is given as “prevented”. On to `CC(C)=CCC/C(C)=C/CC/C(C)=C/CC/C(C)=C/CSC[C@H](NC(=O)[C@H](COP(=O)(O)O)NC(=O)[C@H](CO)NC(=O)[C@H](CCCCN)NC(=O)[C@H](CCCCN)NC(=O)[C@H](CCCNC(=N)N)NC(=O)[C@H](C)NC(=O)[C@H](CCCCN)NC(=O)CNC(=O)[C@@H]1CCCN1C(=O)CCCCCNC(=O)CCCC[C@@H]1SC[C@@H]2NC(=O)N[C@@H]21)C(=O)O` [Rap1B] ({Biotin-Ahx}-PGKARKKS[pS]C(Geranylgeranyl)-OH), for which, at 14-3-3δ, the “affinity for 14-3-3 (in words)” value is “lower affinity” and the off-rate (koff) was found to be 0.055 s⁻¹.

Consider `CC(C)=CCC/C(C)=C/CC/C(C)=C/CSC[C@H](NC(=O)[C@H](COP(=O)(O)O)NC(=O)[C@H](CCCCN)NC(=O)[C@H](C)NC(=O)[C@H](CCCCN)NC(=O)[C@H](CC(=O)O)NC(=O)[C@H](CCCCN)NC(=O)[C@H](CCCNC(=N)N)NC(=O)[C@H](CC(C)C)NC(=O)[C@@H](N)CC(=O)O)C(=O)O` [+P+F] (H-DLRKDKAK[pS]C(Farnesyl)-OH), for which, on 14-3-3ζ [1] (25°C, 50 mM Tris pH 7.5, 100 mM NaCl, 1 mM TCEP, one-site model, mean ± SD, n = 3), the affinity, expressed as Kd, was 69 ± 25 nM. Further, on 14-3-3ζ [2], binding was characterised by a dissociation constant (Kd) of 32.4 nM, the koff is 0.028 s⁻¹ and the on-rate (kon) came out at 860000 M⁻¹ s⁻¹. For “biotinylated Rnd3 C-terminal peptide, phosphorylated on S240 (+P−F)”, in the experiment with hexa-His-tagged 14-3-3ζ, the dH was -5.68 kcal/mol and the stoichiometry N was 0.89.

The molecule `CC(C)=CCC/C(C)=C/CC/C(C)=C/CC/C(C)=C/CSC[C@H](NC(=O)[C@@H](NC(=O)[C@H](CCCCN)NC(=O)[C@H](CO)NC(=O)[C@H](CCCCN)NC(=O)[C@H](CCCCN)NC(=O)[C@H](CC(=O)O)NC(=O)[C@H](CC(=O)O)NC(=O)CNC(=O)CNC(=O)CCCCCNC(=O)CCCC[C@@H]1SC[C@@H]2NC(=O)N[C@@H]21)[C@@H](C)OP(=O)(O)O)C(=O)O` [PDE6C] ({Biotin-Ahx}-GGDDKKSK[pT]C(Geranylgeranyl)-OH) had a koff on 14-3-3δ of 0.018 s⁻¹. As for `CC[C@H](C)[C@H](NC(=O)[C@@H]1CCCN1C(=O)[C@@H](NC(=O)[C@@H]1CCCN1C(=O)CCCCCNC(=O)CCCC[C@@H]1SC[C@@H]2NC(=O)N[C@@H]21)[C@@H](C)O)C(=O)N[C@@H](CCCCN)C(=O)N[C@@H](CCCNC(=N)N)C(=O)NCC(=O)N[C@@H](CCCNC(=N)N)C(=O)N[C@@H](COP(=O)(O)O)C(=O)N[C@@H](CSC/C=C(\C)CC/C=C(\C)CC/C=C(\C)CCC=C(C)C)C(=O)O` [RhoG] ({Biotin-Ahx}-PTPIKRGR[pS]C(Geranylgeranyl)-OH), on 14-3-3δ, the “affinity for 14-3-3 (in words)” value is on record as “lower affinity” and the koff is 0.035 s⁻¹.
